In patent US20230382951A1, “BRAIN PENETRATING PEPTIDES” (BOARD OF REGENTS, THE UNIVERSITY OF TEXAS SYSTEM, priority 2020, published 2023):

Test system: hCMEC/D3 cells
Conditions: third round of biopanning
Experimental: CX7C-presenting M13 phage biopanning against hCMEC/D3 cells. A M13 phage CX7C library was used to pan against established BBB model hCMEC/D3 in vitro to identify potential brain-penetrating peptides. hCMEC/D3 cells (CELLutions Biosystems Inc.) were cultured in EndoGRO medium (Millipore, #SCME004) on Collagen I (Fisher Scientific, #44310001) coated Culture Ware (150 μg/ml, coated for at least 1 h at 37° C.)^110. […] To establish the cell monolayer on the transwell plate setup, hCMEC/D3 cells (passage 27-30) were seeded on a pre-coated collagen I (100 μg/ml for 3 h) coated 12-well transwell plate (Corning, #3401) at a density of 1.5-2.0*10^5 cells/cm^2 for 12-15 days^49. Transepithelial electrical resistance measurements and permeability assay with small tracer molecule sodium fluorescein were used to monitor the tightness of hCMEC/D3 monolayer. Prior to biopanning, hCMEC/D3 cells were incubated in fetal bovine serum depleted medium for 1 h at 37° C., and then 10^11 plaque forming units (pfu) of M13 phage CX7C library (NEB, #E8120S) was added to the donor compartment of the transwell and incubated for 1 h at 37° C. […]
The NGS data from two replicates of MiSeq run were analyzed on Stampede, a supercomputer run on Texas Advanced Computing Center at UT-Austin. First, to confirm the sequence quality and trim the low-quality sequence reads, fastqc and fastx_toolkit were used on the dataset. […]

With NAGHLSQ [Pep-1] as the substance, how does the “frequency relative to second most frequent peptide Pep-2” value read?
Its value is “approximately five-fold higher”.
